Results published in patent US11566057B2, “Long-acting co-agonists of the glucagon and GLP-1 receptors” (Merck Sharp & Dohme Corp., priority 2017, dated 2023).
Like-named read-outs stand apart in the source and are kept apart here. Numbered stars: 1 amine (or outer) side, 2 acyl side, 3 side chain; on linkers, the order of the positions; unused ones are H or OH. Square brackets hold non-standard residues; d marks the D form. Side chains are listed from the residue outwards. Peptide text beside a SMILES is read from it. * marks the point of attachment. C20 diacid = O=C(O)CCCCCCCCCCCCCCCCCCC(=O)*; Phe(4-CH2NH2) = NCc1ccc(C[C@H](N)C(=O)O)cc1; C18 diacid = O=C(O)CCCCCCCCCCCCCCCCC(=O)*; γGlu = O=C(O)[C@H](CCC(=O)[*:2])N[*:1]; Met(O2) = CS(=O)(=O)CC[C@H](N)C(=O)O; αMeD = C[C@](N)(CC(=O)O)C(=O)O; AEEA = NCCOCCOCC(=O)O; Aib = CC(C)(N)C(=O)O

Key:
human GCGR = molecular target: T1, human GCGR (Homo sapiens, UniProt P47871); experiment: cAMP activity assay at the Glucagon receptor (GCGR); type: cell-based; settings: for hGCGR/hGLP1R (hTone): ratio of GCGR EC50 to GLP1R EC50
T1 construct: expressed in transfected cells; growth medium holds Blasticidin and Hygromycin
Procedure, shortened: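 Peptides serially diluted from DMSO (10 points) and added to frozen-stock cells bearing human GLP1R (10,000 cells/well) or GCGR (30,000 cells/well), 1 h at RT, dark. EC50 by four-parameter logistic fit of HitHunter cAMPXS luminescence, read following overnight RT incubation.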

human GLP1R = molecular target: T2, human GLP1R (Homo sapiens, UniProt P43220); experiment: cAMP activity assay at the GLP-1 receptor (GLP1R); type: cell-based
T2 construct: expressed in transfected cells; growth medium holds Blasticidin and Hygromycin
Procedure: Activity of the peptides at the Glucagon receptor (GCGR) and GLP-1 receptor (GLP1R) was measured in a cAMP activity assay.
GCG/GLP-1 receptor co-agonist peptides were dissolved in 100% DMSO (dimethyl sulfoxide) and serially diluted to generate 10 point titrations. The peptide solutions were then transferred into 384-well assay plates (150 nL/well). Assay ready frozen cells expressing human GLP1R or human GCGR were suspended in growth media consisting of DMEM medium (GIBCO®), 10% FBS (GIBCO®), 1×NEAA(GIBCO®), 1×P/S (GIBCO®), 10 ug/mL Blasticidin (GIBCO®) and 200 μg/mL Hygromycin (GIBCO®). […] The cell suspensions (15 μL) were then added to the assay plates containing the peptide solutions (30,000 cells/well for human GCGR; 10,000 cells/well for human GLP1R). The cells were incubated for 1 hour at room temperature in the dark. Production of cAMP was determined using HitHunter™ cAMPXS kits (DiscoverX) following manufacturer protocol. The plates were incubated for overnight at room temperature in the dark. Luminescence was measured using an EnVision Multilabel plate reader (Perkin Elmer). Native GLP-1 and Glucagon (Bachem) are used as control peptides. EC50 values were calculated using uses a 4 parameter logistic fit based on the Levenberg-Marquardt algorithm.

[1] = cells expressing human GCGR, cAMP production, buffer with or without 20% human serum (not stated which), read-out: GCGR EC50 human
[2] = summary statement: EC50 at each of the glucagon and GLP-1 receptors, read-out: EC50 at the glucagon receptor
[3] = summary statement: EC50 at each of the glucagon and GLP-1 receptors, read-out: EC50 at the GLP-1 receptor
[4] = cells expressing human GLP1R, cAMP production, buffer with or without 20% human serum (not stated which), read-out: GLP1R EC50 human

T1 sequence (P47871 26-477): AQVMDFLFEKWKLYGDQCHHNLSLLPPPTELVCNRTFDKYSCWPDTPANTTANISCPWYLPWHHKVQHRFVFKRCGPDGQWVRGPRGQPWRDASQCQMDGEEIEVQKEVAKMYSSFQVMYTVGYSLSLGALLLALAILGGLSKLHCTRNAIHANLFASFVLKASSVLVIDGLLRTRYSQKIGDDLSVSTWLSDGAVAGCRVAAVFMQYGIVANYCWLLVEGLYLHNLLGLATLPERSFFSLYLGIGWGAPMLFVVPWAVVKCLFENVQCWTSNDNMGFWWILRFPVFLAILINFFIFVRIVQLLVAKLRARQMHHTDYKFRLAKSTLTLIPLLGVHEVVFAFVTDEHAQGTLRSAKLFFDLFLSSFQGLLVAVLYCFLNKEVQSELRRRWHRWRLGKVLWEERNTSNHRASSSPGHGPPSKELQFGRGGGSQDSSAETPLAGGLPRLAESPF
T2 sequence (P43220 24-463): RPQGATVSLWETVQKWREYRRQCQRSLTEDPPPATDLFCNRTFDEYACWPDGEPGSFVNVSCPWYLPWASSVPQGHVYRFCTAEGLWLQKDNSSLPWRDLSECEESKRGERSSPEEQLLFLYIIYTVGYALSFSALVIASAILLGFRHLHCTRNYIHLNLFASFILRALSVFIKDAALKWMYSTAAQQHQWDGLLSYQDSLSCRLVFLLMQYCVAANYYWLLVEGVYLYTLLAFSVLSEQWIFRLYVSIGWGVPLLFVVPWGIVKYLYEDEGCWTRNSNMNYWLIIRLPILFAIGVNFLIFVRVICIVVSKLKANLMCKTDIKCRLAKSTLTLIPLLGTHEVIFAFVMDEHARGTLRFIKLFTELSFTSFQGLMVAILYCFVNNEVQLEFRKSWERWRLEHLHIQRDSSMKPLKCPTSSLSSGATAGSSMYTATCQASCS

Row | SMILES | EC50 (human GCGR; [1]) [nM] | hGCGR/hGLP1R (hTone) (human GCGR) | EC50 (human GCGR; [2]) [nM] | EC50 (human GLP1R; [3]) [nM] | EC50 (human GLP1R; [4]) [nM]
1 | CC(C)C[C@H](NC(=O)[C@H](Cc1ccc(O)cc1)NC(=O)[C@H](CCCCN)NC(=O)[C@H](CO)NC(=O)[C@H](Cc1ccc(O)cc1)NC(=O)[C@H](CC(=O)O)NC(=O)[C@H](CO)NC(=O)[C@@H](NC(=O)[C@H](Cc1ccccc1)NC(=O)[C@@H](NC(=O)CNC(=O)[C@H](CCC(N)=O)NC(=O)C(C)(C)NC(=O)[C@@H](N)Cc1c[nH]cn1)[C@@H](C)O)[C@@H](C)O)C(=O)N[C@@H](CC(=O)O)C(=O)N[C@@H](C)C(=O)N[C@@H](CCCNC(=N)N)C(=O)N[C@@H](C)C(=O)N[C@@H](C)C(=O)N[C@@H](CCCCNC(=O)COCCOCCNC(=O)COCCOCCNC(=O)COCCOCCNC(=O)CC[C@H](NC(=O)CCCCCCCCCCCCCCCCC(=O)O)C(=O)O)C(=O)N[C@@H](CC(=O)O)C(=O)N[C@@H](Cc1ccccc1)C(=O)N[C@H](C(=O)N[C@@H](CCC(N)=O)C(=O)N[C@@H](Cc1c[nH]c2ccccc12)C(=O)N[C@@H](CC(C)C)C(=O)N[C@@H](CCS(C)(=O)=O)C(=O)N[C@@H](CC(=O)O)C(=O)N[C@H](C(N)=O)[C@@H](C)O)C(C)C [TP676] (H-H[Aib]QGTFTSDYSKYLDARAAK([AEEA-AEEA-AEEA-γGlu-C18 diacid])DFVQWL[Met(O2)]DT-NH2; N-terminus assumed) |  | 3.1 | < 5 | < 5 | 0.26
2 | CC(C)C[C@H](NC(=O)[C@H](Cc1c[nH]c2ccccc12)NC(=O)[C@H](CCC(N)=O)NC(=O)[C@@H](NC(=O)[C@H](Cc1ccccc1)NC(=O)[C@H](CC(=O)O)NC(=O)[C@H](CCCCNC(=O)COCCOCCNC(=O)COCCOCCNC(=O)CC[C@H](NC(=O)CCCCCCCCCCCCCCCCC(=O)O)C(=O)O)NC(=O)[C@H](C)NC(=O)[C@H](C)NC(=O)[C@H](CCCNC(=N)N)NC(=O)[C@H](C)NC(=O)[C@](C)(CC(=O)O)NC(=O)[C@H](CC(C)C)NC(=O)[C@H](Cc1ccc(O)cc1)NC(=O)[C@H](CCCCN)NC(=O)[C@H](CO)NC(=O)[C@H](Cc1ccc(O)cc1)NC(=O)[C@H](CC(=O)O)NC(=O)[C@H](CO)NC(=O)[C@@H](NC(=O)[C@H](Cc1ccccc1)NC(=O)[C@@H](NC(=O)CNC(=O)[C@H](CCC(N)=O)NC(=O)C(C)(C)NC(=O)[C@@H](N)Cc1c[nH]cn1)[C@@H](C)O)[C@@H](C)O)C(C)C)C(=O)N[C@@H](CCS(C)(=O)=O)C(=O)N[C@@](C)(CC(=O)O)C(=O)N[C@H](C(N)=O)[C@@H](C)O [TP610] (H-H[Aib]QGTFTSDYSKYL[αMeD]ARAAK([AEEA-AEEA-γGlu-C18 diacid])DFVQWL[Met(O2)][αMeD]T-NH2; N-terminus assumed) |  | <0.01 |  |  | > 5
3 | CC(C)C[C@H](NC(=O)[C@H](Cc1ccc(O)cc1)NC(=O)[C@H](CCCCN)NC(=O)[C@H](CO)NC(=O)[C@H](Cc1ccc(O)cc1)NC(=O)[C@H](CC(=O)O)NC(=O)[C@H](CO)NC(=O)[C@@H](NC(=O)[C@H](Cc1ccccc1)NC(=O)[C@@H](NC(=O)CNC(=O)[C@H](CCC(N)=O)NC(=O)C(C)(C)NC(=O)[C@@H](N)Cc1c[nH]cn1)[C@@H](C)O)[C@@H](C)O)C(=O)N[C@@H](CCC(=O)O)C(=O)N[C@@H](C)C(=O)N[C@@H](CCCNC(=N)N)C(=O)N[C@@H](C)C(=O)N[C@@H](C)C(=O)N[C@@H](CCCCNC(=O)COCCOCCNC(=O)COCCOCCNC(=O)CC[C@H](NC(=O)CCCCCCCCCCCCCCCCC(=O)O)C(=O)O)C(=O)N[C@@H](CC(=O)O)C(=O)N[C@@H](Cc1ccccc1)C(=O)N[C@H](C(=O)N[C@@H](CCC(N)=O)C(=O)N[C@@H](Cc1c[nH]c2ccccc12)C(=O)N[C@@H](CC(C)C)C(=O)N[C@@H](CCS(C)(=O)=O)C(=O)N[C@@H](CC(=O)O)C(=O)N[C@H](C(N)=O)[C@@H](C)O)C(C)C [TP674] (H-H[Aib]QGTFTSDYSKYLEARAAK([AEEA-AEEA-γGlu-C18 diacid])DFVQWL[Met(O2)]DT-NH2; N-terminus assumed) |  | 2.4 | < 5 | < 5 | 0.45

Next, values leading:

Row | EC50 (human GCGR; [1]) [nM] | hGCGR/hGLP1R (hTone) (human GCGR) | EC50 (human GCGR; [2]) [nM] | EC50 (human GLP1R; [3]) [nM] | EC50 (human GLP1R; [4]) [nM] | SMILES
4 | 0.27 | 0.7 | < 5 | < 5 |  | CC(C)C[C@H](NC(=O)[C@H](Cc1ccc(O)cc1)NC(=O)[C@H](CCCCN)NC(=O)[C@H](CO)NC(=O)[C@H](Cc1ccc(O)cc1)NC(=O)[C@H](CC(=O)O)NC(=O)[C@H](CO)NC(=O)[C@@H](NC(=O)[C@H](Cc1ccccc1)NC(=O)[C@@H](NC(=O)CNC(=O)[C@H](CCC(N)=O)NC(=O)C(C)(C)NC(=O)[C@@H](N)Cc1c[nH]cn1)[C@@H](C)O)[C@@H](C)O)C(=O)N[C@@H](CC(=O)O)C(=O)N[C@@H](C)C(=O)N[C@@H](CCCNC(=N)N)C(=O)N[C@@H](C)C(=O)N[C@@H](C)C(=O)N[C@@H](CCCCNC(=O)COCCOCCNC(=O)COCCOCCNC(=O)CC[C@H](NC(=O)CCCCCCCCCCCCCCCCC(=O)O)C(=O)O)C(=O)N[C@@H](CCC(=O)O)C(=O)N[C@@H](Cc1ccccc1)C(=O)N[C@H](C(=O)N[C@@H](CCC(N)=O)C(=O)N[C@@H](Cc1c[nH]c2ccccc12)C(=O)N[C@@H](CC(C)C)C(=O)N[C@@H](CCS(C)(=O)=O)C(=O)N[C@@H](CC(=O)O)C(=O)N[C@H](C(N)=O)[C@@H](C)O)C(C)C [TP704] (H-H[Aib]QGTFTSDYSKYLDARAAK([AEEA-AEEA-γGlu-C18 diacid])EFVQWL[Met(O2)]DT-NH2; N-terminus assumed)
5 | 4.95 | >4.0 | < 5 | < 5 |  | CC(C)C[C@H](NC(=O)[C@H](Cc1ccc(O)cc1)NC(=O)[C@H](CCCCN)NC(=O)[C@H](CO)NC(=O)[C@H](Cc1ccc(O)cc1)NC(=O)[C@H](CC(=O)O)NC(=O)[C@H](CO)NC(=O)[C@@H](NC(=O)[C@H](Cc1ccccc1)NC(=O)[C@@H](NC(=O)CNC(=O)[C@H](CCC(N)=O)NC(=O)C(C)(C)NC(=O)[C@@H](N)Cc1c[nH]cn1)[C@@H](C)O)[C@@H](C)O)C(=O)N[C@@H](CC(=O)O)C(=O)N[C@@H](CCC(=O)O)C(=O)N[C@@H](CCCNC(=N)N)C(=O)N[C@@H](C)C(=O)N[C@@H](C)C(=O)N[C@@H](Cc1ccc(CNC(=O)COCCOCCNC(=O)COCCOCCNC(=O)CC[C@H](NC(=O)CCCCCCCCCCCCCCCCCCC(=O)O)C(=O)O)cc1)C(=O)N[C@@H](CC(=O)O)C(=O)N[C@@H](Cc1ccccc1)C(=O)N[C@H](C(=O)N[C@@H](CCC(N)=O)C(=O)N[C@@H](Cc1c[nH]c2ccccc12)C(=O)N[C@@H](CC(C)C)C(=O)N[C@@H](CC(C)C)C(=O)N[C@@H](CCCCN)C(=O)N[C@H](C(N)=O)[C@@H](C)O)C(C)C [TP586] (H-H[Aib]QGTFTSDYSKYLDERAA[Phe(4-CH2NH2)]([AEEA-AEEA-γGlu-C20 diacid])DFVQWLLKT-NH2; N-terminus assumed)
6 |  |  | < 5 | < 5 | 4.95 | CC(C)C[C@H](NC(=O)[C@H](Cc1c[nH]c2ccccc12)NC(=O)[C@H](CCC(N)=O)NC(=O)[C@@H](NC(=O)[C@H](Cc1ccccc1)NC(=O)[C@H](CC(=O)O)NC(=O)[C@H](CCCCNC(=O)COCCOCCNC(=O)COCCOCCNC(=O)CC[C@H](NC(=O)CCCCCCCCCCCCCCCCCCC(=O)O)C(=O)O)NC(=O)[C@H](C)NC(=O)[C@H](C)NC(=O)[C@H](CCCNC(=N)N)NC(=O)C(C)(C)NC(=O)[C@H](CC(=O)O)NC(=O)[C@H](CC(C)C)NC(=O)[C@H](Cc1ccc(O)cc1)NC(=O)[C@H](CCCCN)NC(=O)[C@H](CO)NC(=O)[C@H](Cc1ccc(O)cc1)NC(=O)[C@H](CC(=O)O)NC(=O)[C@H](CO)NC(=O)[C@@H](NC(=O)[C@H](Cc1ccccc1)NC(=O)[C@@H](NC(=O)CNC(=O)[C@H](CCC(N)=O)NC(=O)[C@@H](CO)NC(=O)[C@@H](N)Cc1c[nH]cn1)[C@@H](C)O)[C@@H](C)O)C(C)C)C(=O)N[C@@H](CCS(C)(=O)=O)C(=O)N[C@@H](CC(=O)O)C(=O)N[C@H](C(N)=O)[C@@H](C)O [TP578]
